The numbers were not newly measured in patent US9511078B2, “Self-nanoemulsion of poorly soluble drugs” (Kashiv Pharma, LLC, priority 2013, dated 2016), which cites them from elsewhere.

The conditions of series [1]: high-fat meal (57% fat, 825 calories).

As for `CC(=O)O[C@H]1CC[C@@]2(C)C(=CC[C@@H]3[C@@H]2CC[C@]2(C)C(c4cccnc4)=CC[C@@H]32)C1` [Abiraterone acetate], in series [1], the “Abiraterone AUC0-∞, fold higher with food” value was about 10 fold and the “Abiraterone Cmax, fold higher with food” value was “approximately 17 fold”.

One may read the Log P as the decadic logarithm of the partition coefficient of the neutral form, usually between octanol and water. For the compound `CC(=O)[C@H]1CC[C@H]2[C@@H]3CCC4=CC(=O)CC[C@]4(C)[C@H]3CC[C@]12C` [Progesterone, pregn-4-ene-3,20-dione], the “Log P” value was 3.5.
